For one data set, the system named is rabbits. The experiment in a line: intravenous cocaine-HCl challenge of rabbits immunized with COALB. The method, then: Rabbits were immunized with COALB by subcutaneous injection of 100 μg of the benzoylecgonine-conjugated immunogen every two weeks for a period of two months (four injections). Freund's complete adjuvant was used in the first injection and Freund's incomplete adjuvant was utilized for subsequent injections.

For data set [1] the following is noted: stated in brackets beside the i.v. challenge dose; cited from earlier work.

SMILES strings stand for the structures. Counter-ions that a name gives are not always drawn.

On to `COC(=O)[C@H]1[C@@H](OC(=O)c2ccccc2)C[C@@H]2CC[C@H]1N2C` [cocaine-HCl], for which the “physiologic/toxic effects of cocaine in control (un-immunized) rabbits” value in the data set with rabbits (cocaine-HCl 2 mg/kg i.v. in sterile saline) is recorded as “marked grande maul convulsions”. Also, the “time to recovery of control rabbits after cocaine” value in the data set on rabbits (cocaine-HCl 2 mg/kg i.v., un-immunized rabbits) lay in the range of 10 to 15 min. In addition, in data set [1], the LD50 is on record as 12 mg/kg.

The LD50 is the dose expected to kill half of the subjects tested.
